Biological target: Elastase (Pseudomonas aeruginosa (strain ATCC 15692 / DSM 22644 / CIP 104116 / JCM 14847 / LMG 12228 / 1C / PRS 101 / PAO1), UniProt P14756)
Experiment: In Vitro LasB Activity Assay
Experimental: Fluorescence intensity was measured for 60 min at 37° C. in black 384-well microtiter plates (Greiner BioOne, Kremsm nster, Austria) using a CLARIOstar microplate reader (BMG Labtech, Ortenberg, Germany) with an excitation wavelength of […] and an emission wavelength of 415±20 nm. The assay was performed in a final volume of 50 μL of assay buffer (50 mM Tris, pH 7.2, 2.5 mM CaCl2), 0.075% Pluronic F-127, 5% DMSO) containing LasB at a final concentration of […] 0.3 nM and the substrate at 150 μM. Before substrate addition, compounds were preincubated with the enzyme at 37° C. for 15 min. Experiments were performed in duplicates and repeated for at least two times. Blank controls without enzyme were performed. After blank subtraction, the slope of samples containing inhibitors (v) was divided by the slope of a simultaneously started uninhibited enzymatic reaction (v0).

Elastase, sequence (P14756 whole entry): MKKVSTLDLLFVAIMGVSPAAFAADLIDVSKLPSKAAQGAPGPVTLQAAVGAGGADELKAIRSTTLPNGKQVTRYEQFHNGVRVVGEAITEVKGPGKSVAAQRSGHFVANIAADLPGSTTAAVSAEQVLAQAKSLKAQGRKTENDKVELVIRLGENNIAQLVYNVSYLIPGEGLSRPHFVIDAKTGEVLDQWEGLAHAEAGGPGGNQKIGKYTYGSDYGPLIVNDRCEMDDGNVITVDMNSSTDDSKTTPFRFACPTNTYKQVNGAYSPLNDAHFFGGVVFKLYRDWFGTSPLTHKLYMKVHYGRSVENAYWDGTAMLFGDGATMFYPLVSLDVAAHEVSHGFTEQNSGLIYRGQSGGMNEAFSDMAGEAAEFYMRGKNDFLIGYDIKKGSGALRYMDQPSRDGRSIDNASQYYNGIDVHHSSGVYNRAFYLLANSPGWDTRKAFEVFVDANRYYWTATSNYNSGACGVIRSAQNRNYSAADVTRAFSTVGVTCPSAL

Q: How did the IC50 turn out when `CC(C)CC(C(=O)NO)C(=O)Nc1ccc(Cn2cc(CNS(=O)(=O)c3ccc(C(=O)O)cc3)nn2)cc1` (stereo unspecified) [US20250170104, Compound 209] was run?
A: The IC50 was 44.6 nM.

From BindingDB's records for patent US20250170104 (Helmholtz-Zentrum Fur Infektionsforschung, 2025)
